In ChEMBL document CHEMBL5665443, “Enzyme Inhibitor Single Concentration assay results for EUbOPEN Chemogenomics Library” (2024):

Assays:
[1] = molecular target: Endonuclease 8-like 1 (Homo sapiens) (UniProt Q96FI4); conditions: Hit No;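 further: fluorescence at 594 nm from quenched duplex DNA oligonucleotides released by NEIL1 cleavage and strand separation, reported as reduction of this enzyme activity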
Description: Inhibition of NEIL1 by quantifying inhibition of NEIL1-mediated cleavage and dissociation of quenched duplex DNA oligonucleotides, measured as fluorescence at 594 nm.

[2] = molecular target: Uracil-DNA glycosylase (Homo sapiens) (UniProt P13051); conditions: Hit No;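 further: UNG excision on a quenched double-stranded DNA oligo probe, with APE1 added for strand incision and turnover, read as fluorescence at 594 nm as strands separate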
Description: Inhibition of UNG by quantifying inhibition of UNG-mediated cleavage and dissociation of quenched duplex DNA oligonucleotides, measured as fluorescence at 594 nm. To generate a functional strand incision and increase turn-over this assay is coupled to APE1.

[3] = molecular target: T1, Endonuclease 8-like 2 (Homo sapiens) (UniProt Q969S2); conditions: Hit No;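 further: fluorescence at 594 nm reports NEIL2 cutting and release of a quenched double-stranded DNA oligo substrate, reduced signal read as inhibition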
T1 sequence (whole entry): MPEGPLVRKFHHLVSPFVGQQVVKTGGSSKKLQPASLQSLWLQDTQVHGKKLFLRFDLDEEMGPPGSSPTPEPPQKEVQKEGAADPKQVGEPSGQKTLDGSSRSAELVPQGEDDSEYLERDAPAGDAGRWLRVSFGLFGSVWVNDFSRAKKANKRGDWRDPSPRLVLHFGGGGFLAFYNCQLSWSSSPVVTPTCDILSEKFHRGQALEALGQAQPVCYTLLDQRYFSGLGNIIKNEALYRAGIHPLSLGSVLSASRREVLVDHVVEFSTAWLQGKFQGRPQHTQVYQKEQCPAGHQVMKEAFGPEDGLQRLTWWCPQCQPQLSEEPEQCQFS
Description: Inhibition of NEIL2 by quantifying inhibition of NEIL2-mediated cleavage and dissociation of quenched duplex DNA oligonucleotides, measured as fluorescence at 594 nm.

[4] = molecular target: N-glycosylase/DNA lyase (Homo sapiens) (UniProt O15527); conditions: Hit No;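 further: OGG1 cleavage of a quenched duplex DNA oligonucleotide, coupled to APE1 for strand incision, read as fluorescence at 594 nm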
Description: Inhibition of OGG1 by quantifying inhibition of OGG1-mediated cleavage and dissociation of quenched duplex DNA oligonucleotides, measured as fluorescence at 594 nm. To generate a functional strand incision and increase turn-over this assay is coupled to APE1.

[5] = molecular target: T2, Endonuclease III-like protein 1 (Homo sapiens) (UniProt P78549); conditions: Compound Concentration 10.0 uM, Hit No;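 further: enzyme assay tracking NTHL1 cutting and release of a quenched double-stranded DNA oligo substrate, read as fluorescence at 594 nm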
T2 sequence (whole entry): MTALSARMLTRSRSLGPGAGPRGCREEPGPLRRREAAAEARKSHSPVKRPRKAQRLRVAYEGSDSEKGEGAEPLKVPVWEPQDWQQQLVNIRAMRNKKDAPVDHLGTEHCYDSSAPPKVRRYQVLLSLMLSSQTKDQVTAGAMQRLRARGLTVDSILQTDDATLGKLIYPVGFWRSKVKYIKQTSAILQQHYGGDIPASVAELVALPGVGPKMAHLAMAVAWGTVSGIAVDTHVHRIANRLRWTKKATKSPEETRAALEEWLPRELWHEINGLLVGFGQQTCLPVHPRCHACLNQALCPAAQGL
Description: Inhibition of NTHL1 by quantifying inhibition of NTHL1-mediated cleavage and dissociation of quenched duplex DNA oligonucleotides, measured as fluorescence at 594 nm.

[6] = molecular target: G/T mismatch-specific thymine DNA glycosylase (Homo sapiens) (UniProt Q13569); conditions: Hit No;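 further: human TDG cleavage of quenched duplex DNA oligonucleotides coupled to APE1, strand release read as fluorescence at 594 nm, inhibition of TDG activity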
Description: Inhibition of TDG by quantifying inhibition of TDG-mediated cleavage and dissociation of quenched duplex DNA oligonucleotides, measured as fluorescence at 594 nm. To generate a functional strand incision and increase turn-over this assay is coupled to APE1.

[7] = molecular target: T3, Single-strand selective monofunctional uracil DNA glycosylase (Homo sapiens) (UniProt Q53HV7); conditions: Hit No;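 further: enzymatic SMUG1 assay coupled with APE1, reading fluorescence at 594 nm released when a quenched double-stranded DNA oligonucleotide substrate is cleaved and separated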
T3 sequence (whole entry): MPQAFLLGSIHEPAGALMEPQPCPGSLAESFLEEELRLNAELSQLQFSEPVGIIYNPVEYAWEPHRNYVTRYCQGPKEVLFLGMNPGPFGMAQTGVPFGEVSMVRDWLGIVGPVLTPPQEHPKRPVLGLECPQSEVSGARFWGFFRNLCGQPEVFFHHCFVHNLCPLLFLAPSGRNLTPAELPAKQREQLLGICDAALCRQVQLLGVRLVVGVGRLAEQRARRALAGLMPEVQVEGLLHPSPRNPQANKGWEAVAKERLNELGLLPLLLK
Description: Inhibition of SMUG1 by quantifying inhibition of SMUG1-mediated cleavage and dissociation of quenched duplex DNA oligonucleotides, measured as fluorescence at 594 nm. To generate a functional strand incision and increase turn-over this assay is coupled to APE1.

[8] = molecular target: Methyl-CpG-binding domain protein 4 (Homo sapiens) (UniProt O95243); conditions: Hit No;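 further: MBD4 activity read as fluorescence at 594 nm from cleavage and release of a quenched duplex DNA oligonucleotide, with APE1 coupled to incise the strand and raise turnover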
Methyl-CpG-binding domain protein 4 (Homo sapiens), sequence (O95243 whole entry, the tested form may be a part): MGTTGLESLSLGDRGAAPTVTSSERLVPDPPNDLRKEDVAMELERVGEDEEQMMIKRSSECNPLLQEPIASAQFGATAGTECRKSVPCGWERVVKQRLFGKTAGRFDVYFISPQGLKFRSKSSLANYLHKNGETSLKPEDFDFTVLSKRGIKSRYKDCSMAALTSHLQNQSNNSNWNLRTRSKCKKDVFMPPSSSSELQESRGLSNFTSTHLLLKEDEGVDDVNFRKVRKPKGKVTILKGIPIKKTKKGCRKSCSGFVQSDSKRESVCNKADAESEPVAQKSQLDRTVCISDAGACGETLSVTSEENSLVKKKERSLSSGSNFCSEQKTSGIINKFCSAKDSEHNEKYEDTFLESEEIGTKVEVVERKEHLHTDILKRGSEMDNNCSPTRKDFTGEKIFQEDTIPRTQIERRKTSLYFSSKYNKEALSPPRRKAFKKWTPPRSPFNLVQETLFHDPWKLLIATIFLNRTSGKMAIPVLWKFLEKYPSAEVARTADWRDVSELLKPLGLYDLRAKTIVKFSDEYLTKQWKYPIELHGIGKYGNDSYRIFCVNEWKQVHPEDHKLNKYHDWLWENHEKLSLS
Description: Inhibition of MBD4 by quantifying inhibition of MBD4-mediated cleavage and dissociation of quenched duplex DNA oligonucleotides, measured as fluorescence at 594 nm. To generate a functional strand incision and increase turn-over this assay is coupled to APE1.

G/T mismatch-specific thymine DNA glycosylase (Homo sapiens), sequence (Q13569 whole entry): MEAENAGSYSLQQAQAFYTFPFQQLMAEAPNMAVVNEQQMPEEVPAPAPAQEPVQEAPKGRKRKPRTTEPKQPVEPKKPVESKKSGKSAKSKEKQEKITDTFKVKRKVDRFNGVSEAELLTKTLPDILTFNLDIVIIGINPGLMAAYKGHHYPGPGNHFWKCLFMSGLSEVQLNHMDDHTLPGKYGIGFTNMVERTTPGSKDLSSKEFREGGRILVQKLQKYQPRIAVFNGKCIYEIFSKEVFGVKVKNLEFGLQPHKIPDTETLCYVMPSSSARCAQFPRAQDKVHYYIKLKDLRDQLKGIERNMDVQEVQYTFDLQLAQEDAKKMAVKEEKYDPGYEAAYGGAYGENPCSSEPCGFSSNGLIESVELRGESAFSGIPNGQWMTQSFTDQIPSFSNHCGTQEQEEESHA
Endonuclease 8-like 1 (Homo sapiens), sequence (Q96FI4 whole entry): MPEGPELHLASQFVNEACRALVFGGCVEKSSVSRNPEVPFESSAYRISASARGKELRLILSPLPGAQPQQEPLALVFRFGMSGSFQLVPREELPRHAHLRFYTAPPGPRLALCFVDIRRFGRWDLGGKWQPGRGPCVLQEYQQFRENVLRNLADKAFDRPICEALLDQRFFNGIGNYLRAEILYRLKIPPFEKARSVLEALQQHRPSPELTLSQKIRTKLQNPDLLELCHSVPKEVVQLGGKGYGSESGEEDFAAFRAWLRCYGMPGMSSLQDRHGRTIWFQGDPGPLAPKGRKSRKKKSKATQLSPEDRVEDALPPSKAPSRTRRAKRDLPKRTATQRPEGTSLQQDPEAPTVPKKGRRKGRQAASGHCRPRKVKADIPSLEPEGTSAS
Uracil-DNA glycosylase (Homo sapiens), sequence (P13051 whole entry): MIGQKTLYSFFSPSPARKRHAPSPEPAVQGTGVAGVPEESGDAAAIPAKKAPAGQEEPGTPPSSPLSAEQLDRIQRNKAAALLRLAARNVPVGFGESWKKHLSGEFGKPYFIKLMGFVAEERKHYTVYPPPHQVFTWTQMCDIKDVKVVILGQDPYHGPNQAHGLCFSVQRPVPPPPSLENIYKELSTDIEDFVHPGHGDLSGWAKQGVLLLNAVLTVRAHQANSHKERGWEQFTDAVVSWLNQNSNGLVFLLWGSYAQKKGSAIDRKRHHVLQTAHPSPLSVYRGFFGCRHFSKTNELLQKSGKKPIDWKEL
N-glycosylase/DNA lyase (Homo sapiens), sequence (O15527 whole entry): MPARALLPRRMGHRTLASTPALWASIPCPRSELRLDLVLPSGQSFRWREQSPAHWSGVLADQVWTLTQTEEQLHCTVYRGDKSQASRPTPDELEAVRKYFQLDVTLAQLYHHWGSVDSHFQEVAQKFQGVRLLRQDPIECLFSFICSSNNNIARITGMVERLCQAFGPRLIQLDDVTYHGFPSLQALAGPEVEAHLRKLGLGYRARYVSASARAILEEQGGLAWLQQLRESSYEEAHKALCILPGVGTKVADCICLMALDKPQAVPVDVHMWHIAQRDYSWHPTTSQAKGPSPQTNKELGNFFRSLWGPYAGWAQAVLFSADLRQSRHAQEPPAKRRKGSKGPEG

| Compound | inhibition ([1]; Compound Concentration 10.0 uM) [%] | inhibition ([2]; Compound Concentration 10.0 uM) [%] | inhibition ([3]; Compound Concentration 10.0 uM) [%] | inhibition ([4]; Compound Concentration 10.0 uM) [%] | inhibition [5] [%] | inhibition ([6]; Compound Concentration 10.0 uM) [%] | inhibition ([7]; Compound Concentration 1.0 uM) [%] | inhibition ([1]; Compound Concentration 1.0 uM) [%] | inhibition ([2]; Compound Concentration 1.0 uM) [%] | inhibition ([3]; Compound Concentration 1.0 uM) [%] | inhibition ([4]; Compound Concentration 1.0 uM) [%] | inhibition ([8]; Compound Concentration 1.0 uM) [%] | inhibition ([6]; Compound Concentration 1.0 uM) [%] | inhibition ([7]; Compound Concentration 10.0 uM) [%] | inhibition ([8]; Compound Concentration 10.0 uM) [%] |
| --- | --- | --- | --- | --- | --- | --- | --- | --- | --- | --- | --- | --- | --- | --- | --- |
| c1ccc2oc(-c3csc(C4CCN(Cc5nc6ncccc6[nH]5)CC4)n3)cc2c1 | -4.83 | -7.49 | 1.3 | 2.49 | -1.29 | 76.8 | – | – | – | – | – | – | – | – | – |
| O=C(NCCN1CCOCC1)c1ccc2c(c1)C(=O)c1ccc(Nc3ccc(F)c(NC(=O)c4ccccc4)c3)cc1CC2 | -5.6 | – | -4.66 | – | 0.366 | – | – | – | – | – | – | – | – | – | – |
| CCCC(=O)C1(c2ccccc2)CCN(C(=O)[C@@H](Cc2ccc(OC)cc2)NC(=O)[C@@H](N)Cc2cncn2C)CC1 | 0.454 | -7.56 | -1.37 | -8.78 | -2.73 | – | – | – | – | – | – | – | – | – | – |
| CCCCCCCCCCCCC/C=C/[C@@H](O)[C@@H](N)COP(=O)(O)O | 4.69 | -6.96 | 6.5 | 2.2 | -7.6 | -7.17 | – | – | – | – | – | – | – | – | – |
| COc1cccc(CNC(=O)c2nc3scc(COCc4ccc(C(=O)O)cc4)c3c(=O)[nH]2)c1 | – | – | – | – | – | – | 18.6 | -1.5 | -0.0979 | -2.53 | 12.5 | 56 | 99.5 | – | – |
| CN(C(=O)c1ccccc1)c1cc(N(C)c2ccc3c(c2)CCc2ccc(C(=O)NCCN4CCOCC4)cc2C3=O)ccc1F | -3.21 | – | -1.45 | -2.17 | 3.6 | – | – | – | – | – | – | – | – | – | – |
| CCc1nn2c(C)cc(C)nc2c1Cc1ccc(-c2nnc(C3CCNCC3)o2)cc1 | 6.02 | – | 2.26 | -9.16 | -9.8 | 1.84 | – | – | – | – | – | – | – | – | – |
| CCCCCCOc1cc2n(c(=O)n1)CCc1cc(OC)c(OC)cc1-2 | 1.64 | – | -5.45 | – | -4.39 | – | – | – | – | – | – | – | – | – | – |
| CCC[C@H]1CNCc2c1[nH]c(=O)c(C#N)c2N1CCC2(CC1)CC2 | 9.71 | 0.94 | -0.999 | 2.34 | – | 100 | – | – | – | – | – | – | – | 6.33 | 58.5 |
| CCCSc1nc(N[C@@H]2C[C@H]2c2ccc(F)c(F)c2)c2nnn([C@@H]3C[C@H](OCCO)[C@@H](O)[C@H]3O)c2n1 | -9.1 | -5.37 | – | -6.84 | 11.4 | -6.53 | – | – | – | – | – | – | – | – | – |

Further lines, results first:

| inhibition ([1]; Compound Concentration 10.0 uM) [%] | inhibition ([2]; Compound Concentration 10.0 uM) [%] | inhibition ([3]; Compound Concentration 10.0 uM) [%] | inhibition ([4]; Compound Concentration 10.0 uM) [%] | inhibition [5] [%] | inhibition ([6]; Compound Concentration 10.0 uM) [%] | inhibition ([7]; Compound Concentration 1.0 uM) [%] | inhibition ([1]; Compound Concentration 1.0 uM) [%] | inhibition ([2]; Compound Concentration 1.0 uM) [%] | inhibition ([3]; Compound Concentration 1.0 uM) [%] | inhibition ([4]; Compound Concentration 1.0 uM) [%] | inhibition ([8]; Compound Concentration 1.0 uM) [%] | inhibition ([6]; Compound Concentration 1.0 uM) [%] | inhibition ([7]; Compound Concentration 10.0 uM) [%] | inhibition ([8]; Compound Concentration 10.0 uM) [%] | Compound |
| --- | --- | --- | --- | --- | --- | --- | --- | --- | --- | --- | --- | --- | --- | --- | --- |
| -3.02 | -4.73 | 4.76 | 1.85 | 14.4 | -6.66 | – | – | – | – | – | – | – | – | – | CC(F)(F)CN1CCOc2c(nn(-c3ccccc3Cl)c2-c2ccc(Cl)cc2)C1=O |
| 2.68 | 1.21 | -8.25 | – | -0.258 | – | – | – | – | – | – | – | – | – | – | COc1ccc(S(=O)(=O)N2C(=O)[C@@](c3ccccc3OC)(N3C[C@H](O)C[C@H]3C(=O)N(C)C)c3cc(Cl)ccc32)c(OC)c1 |
| -0.352 | – | 5.51 | – | 1.19 | -9.98 | – | – | – | – | – | – | – | – | – | CC(C)Oc1ccc(-c2nc(-c3cccc4c3CC[C@@H]4NCCO)no2)cc1C#N |
| 0.75 | -3.39 | -0.605 | -4.93 | 12.1 | – | – | – | – | – | – | – | – | – | – | CCCC(=O)C1CCN(c2ncnc3c2CN(C(=O)c2ccc(-c4ccccc4)cc2)CC3)CC1 |
| – | – | – | – | – | – | 22.7 | 3.44 | 1.38 | -5.96 | 5.43 | -2.92 | 37.8 | – | – | C[C@@H]1CCNC(=O)c2cc3ccc(C(=O)Nc4nc5ccccc5n4CCCN(C)C)cc3n21 |
| -2.11 | 4.48 | -0.489 | 25.6 | – | 42.1 | – | – | – | – | – | – | – | 7.83 | 55.3 | CN1CCN(c2ccc(/C=C(\C#N)c3ccccc3Br)cc2)CC1 |
| -2.56 | -0.701 | -5.59 | 5.93 | – | 35.6 | – | – | – | – | – | – | – | 7.47 | 56.8 | Cc1ccc2[nH]c(CNCCCc3ccncc3)cc(=O)c2c1 |
| -4.99 | 3.37 | 12 | 1.26 | – | 46.5 | – | – | – | – | – | – | – | 9.26 | 67 | C[C@@H](c1cccc(C#N)c1)n1cc(Cl)cc(C(N)=O)c1=N |
